Like-named read-outs stand apart in the source and are kept apart here.
Experiments:
participants with WD [1] = test system: participants with WD
Description: The term “dNCC” refers to NCC as directly measured using an NCC assay. For example, in certain embodiments of the methods, uses, or compositions (e.g., comprising tetrathiomolybdic acid or a pharmaceutically acceptable salt thereof) of the disclosure, dNCC is directly measured using the NCC assay as disclosed in PCT Patent Application Publication No. WO2021/050850, filed on Sep.
(§1) These participants had all intake (food and drink) and output (urine and feces) collected from Day −4 through Day −1 (baseline), from Day 1 through Day 8, and Day 25 through Day 39.

participants with WD [2] = conditions: for Daily Net Copper Balance, Change from Baseline, Mean: Table 10; for Decrease from Baseline in Average Daily Net Copper Balance, Mean (SD): Table 13
Method: Study 204 is registered with ClinicalTrials.gov, number NCT04573309, and is described in Example 1 of U.S. Provisional Patent Application No. 63/237,120, filed Aug. 25, 2021, and incorporated by reference herein. […] The participants remained on a Cu-controlled diet, and Cu and Mo balance were measured on all intake (i.e., investigational agent, food and fluids) and all output (urine and feces). The Cu and Mo concentration of each sample was determined by inductively coupled plasma mass spectrometry (ICP-MS). Copper and Mo content of all intake and output was calculated based on the volume or weight of intake and output and the concentration of representative samples.
Collection periods for feces and urine varied in duration from 3 to 15 days to support assessment of both Cu and Mo balance before and at steady state for both 15 mg and 30 mg. Equilibration periods on Cu/Mo-controlled diets were a minimum of 48 hours. Copper balance was calculated as the mean daily Cu balance over each of the 4 collection periods. The interpretation of Cu balance was based on the criteria previously established when undertaking Cu balance studies with zinc treatment.
as §1

patients with WD = conditions: cited from earlier work
[3] = test system: patients with Wilson disease (WD)
Method: This assessment is also applicable to SoC treatments. In addition, plasma Cp, CpC, plasma total copper, and LBC were measured with AUEC calculated for plasma total copper and LBC.
The LBC method measures exchangeable plasma copper that is not bound to either Cp or TPC.
Pharmacodynamics: Blood samples were collected to directly measure plasma total copper, PUF copper, dNCC, and LBC. Calculations may be performed for cNCC and cNCCcorrected, the latter of which is non-ceruloplasmin-bound and non-molybdenum-albumin-bound copper.

[4] = human, in vivo
Description: Pharmacokinetics: Blood samples for PK analysis were collected to measure plasma total molybdenum and plasma ultrafiltrate (PUF) molybdenum.

[5] = Days 1-8 (Accumulation 15 mg/day)
[6] = Days 25-28 (Steady State 15 mg/day)
[7] = Days 31-35 (Accumulation 30 mg/day)
[8] = Days 36-39 (Steady State 30 mg/day)

With bis-choline tetrathiomolybdate [TTM] the “Increase from Baseline in Directly Measured NCC, Mean” value (participants with WD [1]; Day 1, 2 Hours Post-Dose) was 0.5004 µmol/L, the “Increase from Baseline in Directly Measured NCC, Mean” value (participants with WD [1]; Day 1, 4 Hours Post-Dose) was 1.96 µmol/L and the “Increase from Baseline in Directly Measured NCC, Mean” value (participants with WD [1]; Day 1, 5 Hours Post-Dose) was 2.719 µmol/L. For the same substance, the “Increase from Baseline in Directly Measured NCC, Mean” value (participants with WD [1]; Day 1, 6 Hours Post-Dose) was 2.324 µmol/L, the “Increase from Baseline in Directly Measured NCC, Mean” value (participants with WD [1]; Day 1, 8 Hours Post-Dose) was 2.402 µmol/L and the “Increase from Baseline in Directly Measured NCC, Mean” value (participants with WD [1]; Day 1, 12 Hours Post-Dose) was 1.725 µmol/L. The “Increase from Baseline in Directly Measured NCC, Mean” value (participants with WD [1]; Day 1, 24 Hours Post-Dose) was 1.063 µmol/L, the “Increase from Baseline in Directly Measured NCC, Mean” value (participants with WD [1]; Day 4, Pre-Dose) was 2.677 µmol/L and the “Increase from Baseline in Directly Measured NCC, Mean” value (participants with WD [1]; Day 5, Pre-Dose) was 3.144 µmol/L. The “Increase from Baseline in Directly Measured NCC, Mean” value (participants with WD [1]; Day 6, Pre-Dose) was 3.574 µmol/L, the “Increase from Baseline in Directly Measured NCC, Mean” value (participants with WD [1]; Day 7, Pre-Dose) was 3.7 µmol/L and the “Increase from Baseline in Directly Measured NCC, Mean” value (participants with WD [1]; Day 25, 2 Hours Post-Dose) was 2.551 µmol/L. The “Increase from Baseline in Directly Measured NCC, Mean” value (participants with WD [1]; Day 25, 4 Hours Post-Dose) was 3.443 µmol/L, the “Increase from Baseline in Directly Measured NCC, Mean” value (participants with WD [1]; Day 25, 5 Hours Post-Dose) was 3.38 µmol/L and the “Increase from Baseline in Directly Measured NCC, Mean” value (participants with WD [1]; Day 25, 6 Hours Post-Dose) was 4.44 µmol/L. For the same substance, the “Increase from Baseline in Directly Measured NCC, Mean” value (participants with WD [1]; Day 25, 8 Hours Post-Dose) was 5.101 µmol/L, the “Increase from Baseline in Directly Measured NCC, Mean” value (participants with WD [1]; Day 25, 12 Hours Post-Dose) was 4.917 µmol/L and the “Increase from Baseline in Directly Measured NCC, Mean” value (participants with WD [1]; Day 25, 24 Hours Post-Dose) was 3.438 µmol/L. The “Increase from Baseline in Directly Measured NCC, Mean” value (participants with WD [1]; Day 25, −0.5 Hours) was 2.121 µmol/L, the “Increase from Baseline in Directly Measured NCC, Mean” value (participants with WD [1]; Day 27, Pre-Dose, N=2) was 2.767 µmol/L and the “Increase from Baseline in Directly Measured NCC, Mean” value (participants with WD [1]; Day 28, Pre-Dose, N=2) was 2.327 µmol/L. The “Increase from Baseline in Directly Measured NCC, Mean” value (participants with WD [1]; Day 29, 2 Hours Post-Dose) was 2.814 µmol/L, the “Increase from Baseline in Directly Measured NCC, Mean” value (participants with WD [1]; Day 29, 4 Hours Post-Dose) was 3.38 µmol/L and the “Increase from Baseline in Directly Measured NCC, Mean” value (participants with WD [1]; Day 29, 5 Hours Post-Dose) was 4.078 µmol/L. For the same substance, the “Increase from Baseline in Directly Measured NCC, Mean” value (participants with WD [1]; Day 29, 6 Hours Post-Dose) was 4.686 µmol/L, the “Increase from Baseline in Directly Measured NCC, Mean” value (participants with WD [1]; Day 29, 8 Hours Post-Dose) was 5.305 µmol/L and the “Increase from Baseline in Directly Measured NCC, Mean” value (participants with WD [1]; Day 29, 12 Hours Post-Dose) was 4.749 µmol/L. The “Increase from Baseline in Directly Measured NCC, Mean” value (participants with WD [1]; Day 29, 24 Hours Post-Dose) was 3.543 µmol/L, the “Increase from Baseline in Directly Measured NCC, Mean” value (participants with WD [1]; Day 29, −0.5 Hours) was 2.662 µmol/L and the “Increase from Baseline in Directly Measured NCC, Mean” value (participants with WD [1]; Day 31, Pre-Dose, N=2) was 4.121 µmol/L. The “Increase from Baseline in Directly Measured NCC, Mean” value (participants with WD [1]; Day 32, Pre-Dose, N=1) was 8.131 µmol/L, the “Increase from Baseline in Directly Measured NCC, Mean” value (participants with WD [1]; Day 33, Pre-Dose, N=2) was 4.231 µmol/L and the “Increase from Baseline in Directly Measured NCC, Mean” value (participants with WD [1]; Day 34, Pre-Dose, N=2) was 4.103 µmol/L. For the same substance, the “Increase from Baseline in Directly Measured NCC, Mean” value (participants with WD [1]; Day 35, Pre-Dose, N=2) was 4.49 µmol/L, the “Increase from Baseline in Directly Measured NCC, Mean” value (participants with WD [1]; Day 36, Pre-Dose, N=2) was 3.465 µmol/L and the “Increase from Baseline in Directly Measured NCC, Mean” value (participants with WD [1]; Day 37, Pre-Dose, N=2) was 4.168 µmol/L. The “Increase from Baseline in Directly Measured NCC, Mean” value (participants with WD [1]; Day 38, Pre-Dose, N=1) was 7.643 µmol/L, the “Increase from Baseline in Directly Measured NCC, Mean” value (participants with WD [1]; Day 39, 2 Hours Post-Dose) was 3.816 µmol/L and the “Increase from Baseline in Directly Measured NCC, Mean” value (participants with WD [1]; Day 39, 4 Hours Post-Dose) was 5.578 µmol/L. For the same substance, the “Increase from Baseline in Directly Measured NCC, Mean” value (participants with WD [1]; Day 39, 5 Hours Post-Dose) was 6.26 µmol/L, the “Increase from Baseline in Directly Measured NCC, Mean” value (participants with WD [1]; Day 39, 6 Hours Post-Dose) was 6.659 µmol/L and the “Increase from Baseline in Directly Measured NCC, Mean” value (participants with WD [1]; Day 39, 8 Hours Post-Dose) was 7.32 µmol/L. For the same substance, the “Increase from Baseline in Directly Measured NCC, Mean” value (participants with WD [1]; Day 39, 12 Hours Post-Dose) was 6.554 µmol/L, the “Increase from Baseline in Directly Measured NCC, Mean” value (participants with WD [1]; Day 39, 24 Hours Post-Dose) was 4.545 µmol/L and the “Increase from Baseline in Directly Measured NCC, Mean” value (participants with WD [1]; Day 39, −0.5 Hours) was 3.412 µmol/L. The “Daily Net Copper Balance, Change from Baseline, Median” value (participants with WD [2]; [5]) was -0.4291 mg, the “Daily Net Copper Balance, Value, Median” value (participants with WD [2]; [5]) was 0.6678 mg and the “Increase from Baseline in Average Daily Fecal Copper Excretion, Mean” value (participants with WD [2]; [5]) was 0.3278 mg. For the same substance, the “Increase from Baseline in Average Daily Urine Copper Excretion, Mean” value (participants with WD [2]; [5]) was -0.0108 mg, the “Daily Net Copper Balance, Value, Mean” value (participants with WD [2]; Days 1-8 (Accumulation 15 mg/day), N=3) was 0.7654 mg and the “Daily Net Copper Balance, Change from Baseline, Mean” value (participants with WD [2]; [5]) was -0.4848 mg. For the same substance, the “Decrease from Baseline in Average Daily Net Copper Balance, Mean (SD)” value (“Decrease from Baseline … (SD)” for short) (participants with WD [2]; [5]) was −0.4848(0.119) mg, the “Decrease from Baseline … (SD)” value (participants with WD [2]; Days 1-39) was −0.448 (0.1469) mg and the “Daily Net Copper Balance, Change from Baseline, Median” value (participants with WD [2]; [6]) was -0.1459 mg. The “Daily Net Copper Balance, Value, Mean” value (participants with WD [2]; [6]) was 0.7638 mg, the “Daily Net Copper Balance, Value, Median” value (participants with WD [2]; [6]) was 1.1434 mg and the “Increase from Baseline in Average Daily Fecal Copper Excretion, Mean” value (participants with WD [2]; [6]) was 0.4931 mg. For the same substance, the “Increase from Baseline in Average Daily Urine Copper Excretion, Mean” value (participants with WD [2]; [6]) was 0.1042 mg, the “Daily Net Copper Balance, Change from Baseline, Mean” value (participants with WD [2]; [6]) was -0.4865 mg and the “Decrease from Baseline … (SD)” value (participants with WD [2]; [6]) was −0.6381 (0.7673) mg. For the same substance, the “Daily Net Copper Balance, Change from Baseline, Median” value (participants with WD [2]; [7]) was -0.3707 mg, the “Daily Net Copper Balance, Value, Mean” value (participants with WD [2]; [7]) was 0.8577 mg and the “Daily Net Copper Balance, Value, Median” value (participants with WD [2]; [7]) was 0.8312 mg. For the same substance, the “Increase from Baseline in Average Daily Fecal Copper Excretion, Mean” value (participants with WD [2]; [7]) was 0.3879 mg, the “Increase from Baseline in Average Daily Urine Copper Excretion, Mean” value (participants with WD [2]; [7]) was 0.0744 mg and the “Daily Net Copper Balance, Change from Baseline, Mean” value (participants with WD [2]; [7]) was -0.3925 mg. For the same substance, the “Decrease from Baseline … (SD)” value (participants with WD [2]; [7]) was −0.3925 (0.05781) mg, the “Daily Net Copper Balance, Change from Baseline, Median” value (participants with WD [2]; [8]) was -0.4225 mg and the “Daily Net Copper Balance, Value, Mean” value (participants with WD [2]; [8]) was 0.8582 mg. For the same substance, the “Daily Net Copper Balance, Value, Median” value (participants with WD [2]; [8]) was 0.7986 mg, the “Increase from Baseline in Average Daily Fecal Copper Excretion, Mean” value (participants with WD [2]; [8]) was 0.0899 mg and the “Increase from Baseline in Average Daily Urine Copper Excretion, Mean” value (participants with WD [2]; [8]) was 0.1042 mg. The “Daily Net Copper Balance, Change from Baseline, Mean” value (participants with WD [2]; [8]) was -0.3921 mg, the “Decrease from Baseline … (SD)” value (participants with WD [2]; [8]) was −0.2765 (0.3138) mg and the “reduction of mean serum cNCCcorrected compared with baseline” value (patients with WD; Study 201, Week 24, p<0.0001) was 72%. For the same substance, the “patients with reversible liver function test elevations” value (patients with WD; human, in vivo) was 39%, the “AUEC(0-48 week) LBC, Mean” value ([3]; Adolescent) was 1.5 mmol/L and the “AUEC(0-48 week) LBC, Median” value ([3]; Adolescent) was 1.2 mmol/L. The “AUEC(0-48 week) PTC (plasma total copper), Mean” value ([3]; Adolescent) was 7.5 mmol/L, the “AUEC(0-48 week) PTC (plasma total copper), Median” value ([3]; Adolescent) was 5.4 mmol/L and the “AUEC(0-48 week) dNCC, Mean” value ([3]; Adolescent) was 2.7 mmol/L. The “AUEC(0-48 week) dNCC, Median” value ([3]; Adolescent) was 2.3 mmol/L, the “AUEC(0-48 week) LBC, Mean” value ([3]; Adult) was 1.8 mmol/L and the “AUEC(0-48 week) LBC, Median” value ([3]; Adult) was 1.2 mmol/L. The “AUEC(0-48 week) PTC (plasma total copper), Mean” value ([3]; Adult) was 7.8 mmol/L, the “AUEC(0-48 week) PTC (plasma total copper), Median” value ([3]; Adult) was 7.3 mmol/L and the “AUEC(0-48 week) dNCC, Mean” value ([3]; Adult) was 3.2 mmol/L. The “AUEC(0-48 week) dNCC, Median” value ([3]; Adult) was 2.2 mmol/L and the “Daily Mean AUC(0-48 weeks) PUF Mo, Mean” value [4] was 0.1 mmol/L.
